The target in one assay is PD-1/PD-L1 (Homo sapiens, UniProt Q9NZQ7). Put plainly: PD-1/PD-L1 biochemical protein-protein interaction assay (ALPHA). The class given is binding. The following applies: 0.3 nM His tagged PD-L1, 2.5 nM biotinylated Fc-PD-1, 60 minutes at 25° C., read-out: IC50 PD-L1-PD-1 Alpha IC50-mono PD-L1-fcP-D1. An outline of the steps: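 Compound blockade of the PD-1/PD-L1 extracellular-domain interaction measured as reduced ALPHA signal after 60 min at 25 °C, pH 7.4 Hepes buffer with EDTA, Tween 20 and BSA. Final proteins: His-tagged PD-L1 0.3 nM, biotinylated Fc-PD-1 2.5 nM; four-parameter curve fit gives IC50.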
Chain of PD-1/PD-L1 (Q9NZQ7 19-238 limits assumed): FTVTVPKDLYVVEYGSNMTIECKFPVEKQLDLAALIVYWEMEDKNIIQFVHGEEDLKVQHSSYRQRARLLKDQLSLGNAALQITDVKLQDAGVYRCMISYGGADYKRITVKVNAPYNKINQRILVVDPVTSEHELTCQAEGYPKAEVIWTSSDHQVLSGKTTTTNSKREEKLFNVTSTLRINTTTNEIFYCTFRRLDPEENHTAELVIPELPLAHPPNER

The target in a further assay is T1, PD-L1 (Homo sapiens, UniProt Q9NZQ7).
T1 construct: determine if they can specifically dimerize the extracellular domains of PD-L1
T1 sequence (Q9NZQ7 19-238 limits assumed): as above
T1 sequence (Q9NZQ7 19-238 limits assumed): as above
Put plainly: PD-L1/PD-L1 dimerization biochemical protein-protein interaction assay (ALPHA). The class given is binding. The following applies: compound-induced PD-L1 dimerization, head prints '1 nM' (0.5 nM His-tagged PD-L1 and 0.5 nM FLAG-tagged PD-L1), read-out: AC50 PDL1 Dimer Alpha 1 nM. An outline of the steps: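 After 2 h at 25 °C with compound, His- and FLAG-tagged PD-L1 ECDs (each 0.5 nM final; 25 mM Hepes pH 7.4, 150 mM NaCl) were detected by sequential anti-His acceptor and anti-FLAG donor bead incubations. Dose-response curves fitted to four-parameter equation for AC50.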

A further assay has as its target T2, PD-1/PD-L1 interaction (Homo sapiens, UniProt Q9NZQ7).
T2 construct: expressed in transfected cells; host or cells: CHO cells (aAPC-PD-L1) co-cultured with Jurkat cells overexpressing PD-1 and an NFAT-luciferase reporter
Put plainly: PD-1/PD-L1 NFAT reporter co-culture assay. As to conditions: Jurkat PD-1 NFAT-luciferase cells co-cultured with aAPC-PD-L1 CHO cells, 6 hrs at 37° C.; read-out: EC50 NFAT Luciferase. The class given is cell-based. Put shortly: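 Jurkat cells overexpressing PD-1 with NFAT-driven luciferase were mixed with compound in RPMI 1640/2% FBS and seeded onto overnight-plated CHO aAPC-PD-L1 cells expressing surface anti-CD3 and PD-L1. Co-culture ran 6 h at 37 °C; luminescence read with ONE-Glo; EC50 from four-parameter fit.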

For assay [1], the target named is T3, interaction between the recombinant extracellular domain (ECD) of PD-1 and native cell-bound PD-L1 (Homo sapiens, UniProt Q9NZQ7).
T3 construct: expressed in transfected cells
T3 sequence (Q9NZQ7 19-290): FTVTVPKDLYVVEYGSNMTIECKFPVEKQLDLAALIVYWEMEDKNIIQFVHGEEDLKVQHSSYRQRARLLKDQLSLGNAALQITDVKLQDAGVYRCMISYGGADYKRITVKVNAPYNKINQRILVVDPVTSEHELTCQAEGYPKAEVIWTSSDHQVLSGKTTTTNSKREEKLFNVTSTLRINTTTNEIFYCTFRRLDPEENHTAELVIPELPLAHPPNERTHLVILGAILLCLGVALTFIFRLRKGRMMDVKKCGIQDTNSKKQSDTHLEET
Put plainly: CHO/PD-L1 cell capture assay. The class given is cell-based. The following applies: CHO cells overexpressing PD-L1, pre-incubated 1 hr with compound, captured on biotinylated Fc-PD-1 coated plates, 75 min at room temperature. An outline of the steps:
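EC50 values came from four-parameter fits of counts of Draq5-stained CHO-PD-L1 cells retained on plate-bound biotinylated Fc-PD-1 ECD, enumerated by high-content imaging. Cells in PBS pH 7.4 with EDTA and 2% BSA had 1 hr compound pre-incubation, then 75 min capture at room temperature.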

T2 sequence (Q9NZQ7 19-290): as above

Regarding `COc1nc(O[C@H]2CCc3c(-c4cccc5c4CC[C@@H]5Oc4nc(OC)c(CNC[C@@H](O)CC(=O)O)cc4Br)cccc32)c(Br)cc1CNC[C@@H](O)CC(=O)O` [Example 7, (3S,3′S)-4,4′-((((((1S,1′S)-2,2′,3,3′-tetrahydro-1H,1′H-[4,4′-biindene]-1,1′-diyl)bis(oxy))bis(5-bromo-2-methoxypyridine-6,3-diyl))bis(methylene))bis(azanediyl))bis(3-hydroxybutanoic acid)], the IC50 at PD-1/PD-L1 was 0.1 nM. For the same compound, on PD-L1, the AC50 was 140 nM. Besides, the EC50 was 89 nM at PD-1/PD-L1 interaction and 56 nM in assay [1].

Regarding `COc1nc(OCc2cccc(-c3cccc(COc4nc(OC)c(CNCC(=O)O)cc4Cl)c3C)c2C)c(Cl)cc1CNCC(=O)O` [Example 178, 2,2′-((((((2,2′-dimethyl-[1,1′-biphenyl]-3,3′-diyl)bis(methylene))bis(oxy))bis(5-chloro-2-methoxypyridine-6,3-diyl))bis(methylene))bis(azanediyl))diacetic acid], on PD-1/PD-L1, the IC50 worked out at 0.2 nM. Moreover, the AC50 on PD-L1 was not below 10000 nM. Moreover, the 50% effective concentration (EC50) at PD-1/PD-L1 interaction came to 115 nM; in assay [1], 71.6 nM.

With `Cc1c(COc2nc(OCc3cncc(C#N)c3)c(CNC[C@@H](O)CC(=O)O)cc2Br)cccc1-c1cccc(COc2nc(OCc3cncc(C#N)c3)c(CNC[C@@H](O)CC(=O)O)cc2Br)c1C` [Example 240, (3S,3′S)-4,4′-((((((2,2′-dimethyl-[1,1′-biphenyl]-3,3′-diyl)bis(methylene))bis(oxy))bis(5-bromo-2-((5-cyanopyridin-3-yl)methoxy)pyridine-6,3-diyl))bis(methylene))bis(azanediyl))bis(3-hydroxybutanoic acid)], the IC50 at PD-1/PD-L1 was determined as 0.4 nM. Further, the AC50 at PD-L1 came out at 367 nM. The values for the EC50 (on PD-1/PD-L1 interaction; in assay [1]) were 108 nM and 217 nM, respectively.

In the case of `Cc1c(COc2nc(OCC3COC3)c(CNC[C@@H](O)CC(=O)O)cc2Br)cccc1-c1cccc(COc2nc(OCC3COC3)c(CNC[C@@H](O)CC(=O)O)cc2Br)c1C` [Example 132, (3S,3′S)-4,4′-((((((2,2′-dimethyl-[1,1′-biphenyl]-3,3′-diyl)bis(methylene))bis(oxy))bis(5-bromo-2-(oxetan-3-ylmethoxy)pyridine-6,3-diyl))bis(methylene))bis(azanediyl))bis(3-hydroxybutanoic acid)], the concentration for half-maximal inhibition (IC50) at PD-1/PD-L1 was found to be 0.3 nM. For the same compound, at PD-L1, the AC50 is 279 nM. The EC50 was 391 nM at PD-1/PD-L1 interaction and 194 nM in assay [1].

On to `COc1cc(OCc2cccc(-c3cccc(COc4cc(OC)c(CNC[C@@H](O)CC(=O)O)cc4Cl)c3C)c2C)c(Cl)cc1CNC[C@@H](O)CC(=O)O` [Example 214, (3S,3′S)-4,4′-((((((2,2′-dimethyl-[1,1′-biphenyl]-3,3′-diyl)bis(methylene))bis(oxy))bis(5-chloro-2-methoxy-4,1-phenylene))bis(methylene))bis(azanediyl))bis(3-hydroxybutanoic acid)], for which the IC50 at PD-1/PD-L1 was 0.2 nM. The AC50 on PD-L1 was determined as 188 nM. For the same compound, the results for the EC50 (at PD-1/PD-L1 interaction; in assay [1]) were 172 nM and 22.3 nM, respectively.

With `Cc1c(COc2cc(OCc3cncc(C#N)c3)c(CNC[C@@H](O)CC(=O)O)cc2Cl)cccc1-c1cccc(-c2ccc(OCCNC[C@@H](O)CC(=O)O)cc2)c1C` [Example 16, (S)-4-((4-((4″-(2-(((S)-3-carboxy-2-hydroxypropyl)amino)ethoxy)-2,2′-dimethyl-[1,1′:3′,1″-terphenyl]-3-yl)methoxy)-5-chloro-2-((5-cyanopyridin-3-yl)methoxy)benzyl)amino)-3-hydroxybutanoic acid], the IC50 at PD-1/PD-L1 amounted to 0.1 nM. Besides, on PD-L1, the AC50 is 100 nM. Moreover, the figures for the EC50 (at PD-1/PD-L1 interaction; in assay [1]) were 88 nM and 6 nM, respectively.

Regarding `Cc1c(COc2nc(OCCc3cncnc3)c(CNC[C@@H](O)CC(=O)O)cc2Br)cccc1-c1cccc(COc2nc(OCCc3cncnc3)c(CNC[C@@H](O)CC(=O)O)cc2Br)c1C` [Example 127, (3S,3′S)-4,4′-((((((2,2′-dimethyl-[1,1′-biphenyl]-3,3′-diyl)bis(methylene))bis(oxy))bis(5-bromo-2-(2-(pyrimidin-5-yl)ethoxy)pyridine-6,3-diyl))bis(methylene))bis(azanediyl))bis(3-hydroxybutanoic acid)], the IC50 on PD-1/PD-L1 was determined as 0.2 nM. Further, the AC50 on PD-L1 turned out to be 166 nM. Further, the figures for the EC50 (on PD-1/PD-L1 interaction; in assay [1]) were 193 nM and 68.6 nM, respectively.

With `Cc1c(COc2cc(OCc3cncc(C#N)c3)c(CNC[C@H](O)C(=O)O)cc2Cl)cccc1-c1cccc(COc2cc(OCc3cncc(C#N)c3)c(CNC[C@H](O)C(=O)O)cc2Cl)c1C` [Example 213, (2S,2′S)-3,3′-((((((2,2′-dimethyl-[1,1′-biphenyl]-3,3′-diyl)bis(methylene))bis(oxy))bis(5-chloro-2-((5-cyanopyridin-3-yl)methoxy)-4,1-phenylene))bis(methylene))bis(azanediyl))bis(2-hydroxypropanoic acid)], at PD-1/PD-L1, the IC50 was 1.6 nM. Besides, the AC50 on PD-L1 was determined as 255 nM. Moreover, the results for the half-maximal effective concentration (EC50) (at PD-1/PD-L1 interaction; in assay [1]) were 182 nM and 165 nM, respectively.

Regarding `COc1nc(OCc2cccc(-c3cccc(COc4nc(OC)c(CNC[C@@H](O)C(=O)O)cc4Cl)c3C)c2C)c(Cl)cc1CNC[C@@H](O)C(=O)O` [Example 167, (2R,2′R)-3,3′-((((((2,2′-dimethyl-[1,1′-biphenyl]-3,3′-diyl)bis(methylene))bis(oxy))bis(5-chloro-2-methoxypyridine-6,3-diyl))bis(methylene))bis(azanediyl))bis(2-hydroxypropanoic acid)], the IC50 on PD-1/PD-L1 was determined as 2.2 nM. For the same compound, the AC50 at PD-L1 is not below 10000 nM. Moreover, the EC50 at PD-1/PD-L1 interaction came out at 109 nM; in assay [1] it was 62.3 nM.

Turning to `COc1nc(O[C@H]2CCc3c(-c4cccc5c4CC[C@@H]5Oc4nc(OC)c(CNC[C@@H](O)CC(=O)O)cc4Cl)cccc32)c(Cl)cc1CNC[C@@H](O)CC(=O)O` [Example 6, (3S,3′S)-4,4′-((((((1S,1′S)-2,2′,3,3′-tetrahydro-1H,1′H-[4,4′-biindene]-1,1′-diyl)bis(oxy))bis(5-chloro-2-methoxypyridine-6,3-diyl))bis(methylene))bis(azanediyl))bis(3-hydroxybutanoic acid)], on PD-1/PD-L1, the IC50 was found to be 0.1 nM. Also, the AC50 on PD-L1 was 90.9 nM. For the same compound, the EC50 turned out to be 148 nM at PD-1/PD-L1 interaction and 63.8 nM in assay [1].

For the compound `COc1nc(OCc2cccc(-c3cccc(COc4nc(OC)c(CNC[C@H](O)CC(=O)O)cc4Br)c3Cl)c2Cl)ccc1CNC[C@H](O)CC(=O)O` [Example 192, (R)-4-(((6-((3′-(((3-Bromo-5-((((R)-3-carboxy-2-hydroxypropyl)amino)methyl)-6-methoxypyridin-2-yl)oxy)methyl)-2,2′-dichloro-[1,1′-biphenyl]-3-yl)methoxy)-2-methoxypyridin-3-yl)methyl)amino)-3-hydroxybutanoic acid], the AC50 on PD-L1 stood at 267 nM. Moreover, the EC50 at PD-1/PD-L1 interaction stood at 197 nM; in assay [1], 31.2 nM.

For `Cc1c(COc2nc(OCCC(=O)N(C)C)c(CNC[C@@H](O)CC(=O)O)cc2Br)cccc1-c1cccc(COc2nc(OCCC(=O)N(C)C)c(CNC[C@@H](O)CC(=O)O)cc2Br)c1C` [Example 135, (3S,3′S)-4,4′-((((((2,2′-dimethyl-[1,1′-biphenyl]-3,3′-diyl)bis(methylene))bis(oxy))bis(5-bromo-2-(3-(dimethylamino)-3-oxopropoxy)pyridine-6,3-diyl))bis(methylene))bis(azanediyl))bis(3-hydroxybutanoic acid)], on PD-L1, the AC50 stood at 250 nM. In addition, the results for the EC50 (at PD-1/PD-L1 interaction; in assay [1]) were 812 nM and 221 nM, respectively.

With `Cc1c(COc2cc(OCc3cncc(C#N)c3)c(CNC[C@@H](O)CC(=O)O)cc2Cl)cccc1-c1cccc(-c2ccc(OCCNC[C@@H](O)CC(=O)O)cn2)c1C` [Example 112, (S)-4-((4-((3′-(5-(2-(((S)-3-carboxy-2-hydroxypropyl)amino)ethoxy)pyridin-2-yl)-2,2′-dimethyl-[1,1′-biphenyl]-3-yl)methoxy)-5-chloro-2-((5-cyanopyridin-3-yl)methoxy)benzyl)amino)-3-hydroxybutanoic acid], the AC50 on PD-L1 was determined as 184 nM. Also, the EC50 at PD-1/PD-L1 interaction turned out to be 286 nM; in assay [1], 34.4 nM.

For the origin of these results see patent publication US12590062B2, “PD-1/PD-L1 inhibitors” (Gilead Sciences, Inc., priority 2017, dated 2026).
